Our source for the ring closure, yield of all isomers, Ki and EC50 values is US9617310B2 (priority 2013, dated 2017).

The conditions of data set [1]: from C=CCCC[C@@H]1[C@H]2C[C@H]2C[C@H]1OC(=O)N[C@H](C(=O)N1C[C@H](Oc2nc3cc(Cl)ccc3nc2C=C)C[C@H]1C(=O)OC)C(C)(C)C; rcm bond; Zhan Catalyst-1B; DCE; 4.97 mM; 83.0 °C; 0.67 h.
Data set [2] has as its target T1, NS3 genotype 3a protease (UniProt Q81258).
T1 construct: Purified NS3 protease domain (amino acids 1-181) of the genotype 1b and 3a virus were generated as above; fused on or other part: N-terminal hexahistidine tag with an rTEV protease cleavage site (vector p28-N6H-Tev-NS3(181)3)
T1 sequence (Q81258 1033-1663): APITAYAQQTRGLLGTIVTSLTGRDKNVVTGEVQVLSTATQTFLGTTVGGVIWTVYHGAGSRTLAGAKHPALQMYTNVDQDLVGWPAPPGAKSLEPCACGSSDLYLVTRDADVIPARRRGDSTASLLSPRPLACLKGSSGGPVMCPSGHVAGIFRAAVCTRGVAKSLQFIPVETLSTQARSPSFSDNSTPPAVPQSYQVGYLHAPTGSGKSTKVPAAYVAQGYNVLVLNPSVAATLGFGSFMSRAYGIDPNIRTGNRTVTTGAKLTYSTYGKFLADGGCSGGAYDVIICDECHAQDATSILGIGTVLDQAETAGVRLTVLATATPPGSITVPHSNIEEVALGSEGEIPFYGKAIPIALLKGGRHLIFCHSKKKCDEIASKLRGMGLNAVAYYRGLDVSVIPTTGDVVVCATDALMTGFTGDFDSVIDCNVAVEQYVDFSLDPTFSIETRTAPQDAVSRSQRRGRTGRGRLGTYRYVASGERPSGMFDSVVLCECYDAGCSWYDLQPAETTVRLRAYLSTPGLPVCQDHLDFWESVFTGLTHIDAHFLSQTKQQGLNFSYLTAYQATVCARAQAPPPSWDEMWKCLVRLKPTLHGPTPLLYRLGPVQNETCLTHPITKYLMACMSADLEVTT
Briefly: Ki determination, NS3 protease genotype 3a (fluorogenic depsipeptide substrate). The data set is classed as biochemical, hepatitis C virus. To be noted: NS3 protease domain genotype 3a, NS4A peptide. The source says: (§1) Ki Determination for Genotypes 1b and 3a NS3 Protease.
(§2) Purified NS3 protease domain (amino acids 1-181) of the genotype 1b and 3a virus were generated as above. The internally quenched fluorogenic depsipeptide substrate Ac-DED(Edans)-EEAbuψ[COO]ASK(Dabcyl)-NH2 and a synthetic peptide containing the hydrophobic core residues of the NS4A protein cofactor ([…]; NS4A peptide) were obtained from Anaspec, Inc. (San Jose, Calif.). Other chemicals and biochemicals were of reagent grade or better and were purchased from standard suppliers.
(§3) Reactions were run at room temperature in buffer consisting of 50 mM HEPES, 40% glycerol, 0.05% Triton X-100, 10 mM DTT, and 10% DMSO. The final assay solutions contained 50 pM NS3 genotype 1b protease or 200 pM genotype 3a protease, 20 μM NS4A peptide, and 4 μM substrate (genotype 1b) or 2 μM substrate (genotype 3a). Inhibitor concentrations varied from 100 nM to 5 pM in 3-fold dilutions, and no-inhibitor controls were included.
(§4) Compound dilutions were made in DMSO at 20× final concentration. Reaction mixtures were prepared in 96-well assay plates. A solution of enzyme and NS4A peptide in assay buffer (25 μL volume with both reagents at 4× final concentration) was mixed with 45 μL assay buffer and 5 μL of either inhibitor or DMSO, and pre-incubated at room temperature for 1 hour. The reaction was started by addition of 25 μL substrate solution at 4× final concentration. Plates were mixed vigorously for 5-10 seconds and reactions were allowed to proceed for 90 minutes. Fluorescence was measured every 30 s between 90 and 120 minutes reaction time using a Tecan InfiniTe M1000 or PerkinElmer Envision multimode plate reader with an excitation wavelength of 340 nm and an emission wavelength of 490 nm.
(§5) Rates were calculated from the progress curves at steady state, in the time frame of 90-120 minutes after addition of substrate. To determine the Ki, rates were plotted as a function of inhibitor concentration, and the data were fit with equation 1 (Morrison, J. F., Biochimica et Biophysica Acta 1969, 185, 269-286) to calculate Ki^app using GraphPad Prism 5. Active fraction of enzyme was determined by active site titration with known potent inhibitors. Ki was calculated from Ki^app/(1+[[S]/Km]).

Data set [3] has as its target T2, NS3 genotype 1b protease (Hepatitis C virus genotype 1b, UniProt Q9WMX2, E1202G).
T2 construct: Purified NS3 protease domain (amino acids 1-181) of the genotype 1b and 3a virus were generated as above; K3 hexahistidine tag (N); rTEV protease cleavage site (N); made in house; host or cells: E. coli BL21AI
Briefly: Ki determination, NS3 protease genotype 1b (fluorogenic depsipeptide substrate). The data set is classed as biochemical. Conditions: NS3 protease domain genotype 1b, NS4A peptide.
Excerpt: as §1, §2, §3, §4, §5

The subject of data set [4] is genotype 4a stable HCV replicon (ED43) in Huh-7-derived cells. Briefly: Stable subgenomic HCV replicon, genotype 4a, Renilla luciferase. The data set is classed as cell-based. Conditions: Hepatitis C virus, 72 h, read-out: EC50 4A RLUC. As to the method:
(§6) Antiviral potency (EC50) was determined in both stable subgenomic HCV replicon cell lines and transient-transfected HCV replicon cells. The term half maximal effective concentration (EC50) refers to the concentration of a drug which induces a response halfway between the baseline and maximum after the exposure time specified below.
(§7) Stable subgenomic HCV replicons for genotype 1a, 1b, 2a, 3a, and 4a were established in Huh-7-derived cells as described by Lohmann et al (Lohmann V, Korner F, Koch J, et al Replication of subgenomic hepatitis C virus RNAs in a hepatoma cell line. Science 1999; 285:119-3). Each stable cell line contains a bicistronic HCV replicon that encodes a humanized Renilla luciferase (hRLuc) reporter gene fused to a selectable neomycin-resistance gene, followed by an EMCV IRES and the NS3-NS5B coding region of HCV. […] Luciferase activity was measured as a marker for intracellular HCV replication levels.
(§8) The genotype 1a stable replicon was derived from the H77 HCV strain and contained adaptive mutations P1496L and S2204I. The genotype 1b stable replicon was derived from the Con1 HCV strain and contained adaptive mutations E1202G, T1280I, and K1846T. […] The genotype 3a stable replicon was derived from the S52 HCV strain and contained adaptive mutations P1121 L, A1198T and S2210I (equivalent to S2204I in genotype 1). The genotype 4a stable replicon was derived from the ED43 HCV strain and contained adaptive mutations Q1691R and S2204I. All replicon cell lines were propagated in Huh-7-derived cells and maintained in Dulbecco's modified Eagle's Medium (DMEM) supplemented with 10% fetal bovine serum (FBS) and 0.5 mg/ml G418.
(§9) To perform EC50 assays, cells from each HCV replicon were dispensed into 384-well plates. Compounds were dissolved in DMSO at a concentration of 10 mM and diluted in DMSO using an automated pipetting instrument. Three-fold serially diluted compounds were directly added to the cells using an automated instrument. DMSO was used as a negative (solvent; no inhibition) control, and a combination of three HCV inhibitors including a protease inhibitor; an NS5A inhibitor and a nucleoside inhibitor was used at concentrations >100×EC50 as a positive control (100% inhibition). Seventy-two hours later, cells were lysed and Renilla luciferase activity were quantified as recommended by the manufacturer (Promega-Madison, Wis.). Non-linear regression was performed to calculate […], values.
(In general: A replicon is a self-replicating genome or part of one, used to study replication in cells.)

The subject of data set [5] is genotype 2a stable HCV replicon (JFH-1) in Huh-7-derived cells. Briefly: Stable subgenomic HCV replicon, genotype 2a, Renilla luciferase. In kind it is cell-based. Conditions: Hepatitis C virus, stable replicon genotype 2a, 72 h, read-out: EC50 2A RLUC. How it is done: as §6, §7, §8, §9
Data set [6] concerns genotype 1b stable HCV replicon (Con1) in Huh-7-derived cells. Briefly: Stable subgenomic HCV replicon, genotype 1b, Renilla luciferase. In kind it is cell-based. To be noted: Hepatitis C virus, stable replicon genotype 1b, 72 h, read-out: EC50 1B RLUC. As to the method: as §6, §7, §8, §9
The test system of data set [7] is genotype 1a stable HCV replicon (H77) in Huh-7-derived cells. In words: Stable subgenomic HCV replicon, genotype 1a, Renilla luciferase. To be noted: Hepatitis C virus, stable replicon genotype 1a, 72 h, read-out: EC50 1A RLUC. The data set is classed as cell-based. How it is done:
as §6, §7, §8, §9

Data set [8] relates to genotype 3a stable HCV replicon (S52) in Huh-7-derived cells. In words: Stable subgenomic HCV replicon, genotype 3a, Renilla luciferase. The data set is classed as cell-based. Conditions: Hepatitis C virus, 72 h, read-out: EC50 3A RLUC. How it is done: as §6, §7, §8, §9

T2 sequence (Q9WMX2 1027-1207 E1202G, other chains not shown): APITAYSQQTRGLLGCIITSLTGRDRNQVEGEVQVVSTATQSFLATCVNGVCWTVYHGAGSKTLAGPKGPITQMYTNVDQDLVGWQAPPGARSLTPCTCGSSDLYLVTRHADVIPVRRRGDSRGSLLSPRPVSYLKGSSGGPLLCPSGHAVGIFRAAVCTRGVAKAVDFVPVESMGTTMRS

For `COC(=O)[C@@H]1C[C@@H]2CN1C(=O)[C@H](C(C)(C)C)NC(=O)O[C@@H]1C[C@@H]3C[C@@H]3[C@H]1CCCC=Cc1nc3ccc(Cl)cc3nc1O2`, in data set [1], the ring closure, yield of all isomers was 56.6%.
As a reminder, the Ki is a dissociation constant, usually derived from enzyme kinetics or from competition with a known ligand. Read a high Ki as a looser hold on the target. One may read the EC50 as the concentration needed to bring the measured effect to its halfway point. For `COc1ccc2nc3c(nc2c1)O[C@@H]1C[C@@H](C(=O)N[C@]2(C(=O)NS(=O)(=O)C4CC4)C[C@H]2C(F)F)N(C1)C(=O)[C@H](C(C)(C)C)NC(=O)O[C@H]1[C@@H]2CC[C@@H](C2)[C@@H]1CCCCC3` [Example 6, (1S,4R,4aS,8S,11S,13R,25aS)-8-tert-butyl-N-[(1R,2R)-1-[(cyclopropylsulfonyl)carbamoyl]-2-(difluoromethyl)cyclopropyl]-17-methoxy-6,9-dioxo-2,3,4,4a,6,7,8,9,12,13,21,22,23,24,25,25a-hexadecahydro-1H,11H-1, 4:10,13-dimethanoquinoxalino[2,3-k][1,10,3,6]benzodioxadiazacyclononadecine-11-carboxamide], the inhibition constant Ki was determined as 1.2 nM in data set [2] and 0.01 nM in data set [3]. Also, the EC50 in data set [4] was 433 nM; in data set [5], 294 nM; in data set [6], 581 nM; in data set [7], 723 nM; in data set [8], 3.85 µM.
